Legend:
lipoamide = compound: NC(=O)CCCCC1CCSS1 [lipoamide]; assay: thermal stability z-score vs DMSO; higher = more thermally stabilized by treatment; conditions: HeLa, lipoamide concentration 100 µM
Description: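 Cellular thermal proteome profiling in HeLa cells. Cells were treated with 100 µM lipoamide for 1 h, with or without 1 mM arsenate for a further 1 h, then heated to ten temperatures (37-66.3 °C), and soluble protein was quantified by TMT mass spectrometry relative to 0.1% DMSO controls. The thermal stability score (sum of log2 fold changes minus the abundance score) was transformed to a z-score; mean of n = 3 experiments.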

potassium arsenate = compound: O=[As]([O-])(O)O.[K+] [potassium arsenate]; assay: as above; conditions: HeLa; arsenate concentration 1 mM
Description: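 Cellular thermal proteome profiling in HeLa cells treated with 1 mM arsenate for 1 h (DMSO pretreatment), heated to ten temperatures (37-66.3 °C). Soluble protein was quantified by TMT mass spectrometry relative to DMSO controls; the thermal stability score was transformed to a z-score; mean of n = 3 experiments.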

[1] = arsenate co-treatment: 1 mM arsenate 1 h
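Further: each temperature applied for 3 min, abundance score taken as mean log2 fold change at the two lowest temperatures, z-score obtained by mean subtraction and division by SD.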

Sequence of UniProt P40855 (P40855 whole entry, one chain of several): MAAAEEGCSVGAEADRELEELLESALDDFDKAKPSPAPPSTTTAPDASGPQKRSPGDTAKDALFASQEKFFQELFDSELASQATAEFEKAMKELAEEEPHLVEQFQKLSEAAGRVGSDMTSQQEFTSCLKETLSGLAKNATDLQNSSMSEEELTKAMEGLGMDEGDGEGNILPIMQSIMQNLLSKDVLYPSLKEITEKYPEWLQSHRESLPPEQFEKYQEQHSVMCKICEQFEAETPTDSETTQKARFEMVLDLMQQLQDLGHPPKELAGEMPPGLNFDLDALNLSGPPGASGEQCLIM
Sequence of UniProt P61244 (P61244 whole entry): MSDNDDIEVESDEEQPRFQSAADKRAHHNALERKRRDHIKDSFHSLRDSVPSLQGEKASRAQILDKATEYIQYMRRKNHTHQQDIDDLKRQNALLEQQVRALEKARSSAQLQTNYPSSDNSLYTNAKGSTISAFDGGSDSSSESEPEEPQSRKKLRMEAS
Sequence of UniProt Q8TBC4 (Q8TBC4 whole entry): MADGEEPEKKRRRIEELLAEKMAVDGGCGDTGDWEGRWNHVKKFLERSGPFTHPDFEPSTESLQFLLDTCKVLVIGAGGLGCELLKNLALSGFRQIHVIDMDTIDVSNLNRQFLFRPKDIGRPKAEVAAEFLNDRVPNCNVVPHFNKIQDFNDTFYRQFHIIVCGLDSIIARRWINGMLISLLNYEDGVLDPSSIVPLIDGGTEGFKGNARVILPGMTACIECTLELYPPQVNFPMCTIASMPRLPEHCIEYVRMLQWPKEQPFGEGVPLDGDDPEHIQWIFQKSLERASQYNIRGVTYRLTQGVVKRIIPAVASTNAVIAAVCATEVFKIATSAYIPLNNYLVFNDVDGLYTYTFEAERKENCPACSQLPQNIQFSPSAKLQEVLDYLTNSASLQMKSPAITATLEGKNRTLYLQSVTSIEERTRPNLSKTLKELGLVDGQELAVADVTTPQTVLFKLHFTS
Sequence of UniProt P49815 (P49815 whole entry): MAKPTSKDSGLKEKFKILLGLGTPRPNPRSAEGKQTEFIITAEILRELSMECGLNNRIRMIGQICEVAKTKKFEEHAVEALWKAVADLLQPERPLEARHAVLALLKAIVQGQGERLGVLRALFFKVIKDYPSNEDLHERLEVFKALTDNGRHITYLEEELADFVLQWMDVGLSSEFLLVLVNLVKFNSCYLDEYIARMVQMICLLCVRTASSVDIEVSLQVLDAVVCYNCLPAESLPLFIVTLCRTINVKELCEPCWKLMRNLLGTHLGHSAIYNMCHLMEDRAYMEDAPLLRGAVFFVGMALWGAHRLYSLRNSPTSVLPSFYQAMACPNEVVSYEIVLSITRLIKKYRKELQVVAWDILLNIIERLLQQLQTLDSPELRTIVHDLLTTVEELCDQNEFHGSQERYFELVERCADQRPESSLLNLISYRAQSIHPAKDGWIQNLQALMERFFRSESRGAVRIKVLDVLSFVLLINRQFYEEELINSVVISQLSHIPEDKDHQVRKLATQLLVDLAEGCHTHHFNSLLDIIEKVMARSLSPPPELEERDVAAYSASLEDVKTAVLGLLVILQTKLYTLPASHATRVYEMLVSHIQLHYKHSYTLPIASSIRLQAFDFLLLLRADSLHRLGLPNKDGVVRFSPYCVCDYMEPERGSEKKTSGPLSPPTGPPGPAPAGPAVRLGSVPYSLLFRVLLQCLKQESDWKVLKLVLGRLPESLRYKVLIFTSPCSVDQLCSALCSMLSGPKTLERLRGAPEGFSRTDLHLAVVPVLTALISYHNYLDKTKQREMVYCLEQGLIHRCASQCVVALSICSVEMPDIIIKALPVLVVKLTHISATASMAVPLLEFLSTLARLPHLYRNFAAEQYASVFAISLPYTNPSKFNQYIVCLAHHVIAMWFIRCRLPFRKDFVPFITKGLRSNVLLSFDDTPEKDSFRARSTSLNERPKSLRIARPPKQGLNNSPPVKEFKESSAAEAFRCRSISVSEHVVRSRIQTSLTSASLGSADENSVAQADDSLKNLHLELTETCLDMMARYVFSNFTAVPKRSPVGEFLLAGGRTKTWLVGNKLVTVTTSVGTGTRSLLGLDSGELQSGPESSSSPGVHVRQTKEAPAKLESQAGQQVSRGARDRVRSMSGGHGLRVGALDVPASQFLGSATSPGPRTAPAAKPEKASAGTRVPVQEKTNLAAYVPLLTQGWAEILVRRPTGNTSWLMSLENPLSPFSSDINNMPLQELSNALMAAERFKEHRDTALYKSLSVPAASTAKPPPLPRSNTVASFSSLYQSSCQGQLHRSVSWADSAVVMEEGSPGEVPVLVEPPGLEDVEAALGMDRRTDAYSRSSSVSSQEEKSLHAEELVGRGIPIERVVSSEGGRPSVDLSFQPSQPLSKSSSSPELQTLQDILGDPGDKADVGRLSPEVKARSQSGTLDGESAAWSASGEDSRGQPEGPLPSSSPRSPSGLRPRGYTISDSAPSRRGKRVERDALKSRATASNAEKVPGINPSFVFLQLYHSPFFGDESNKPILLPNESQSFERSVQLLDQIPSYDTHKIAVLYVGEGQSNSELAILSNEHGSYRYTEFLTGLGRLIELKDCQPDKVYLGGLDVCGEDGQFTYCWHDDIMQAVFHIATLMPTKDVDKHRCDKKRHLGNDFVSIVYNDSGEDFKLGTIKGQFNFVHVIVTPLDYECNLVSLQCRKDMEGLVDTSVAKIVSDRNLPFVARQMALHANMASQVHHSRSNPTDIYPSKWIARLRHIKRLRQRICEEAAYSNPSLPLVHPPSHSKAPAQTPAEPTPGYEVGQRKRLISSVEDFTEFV
Sequence of UniProt Q9NXX6 (Q9NXX6 whole entry): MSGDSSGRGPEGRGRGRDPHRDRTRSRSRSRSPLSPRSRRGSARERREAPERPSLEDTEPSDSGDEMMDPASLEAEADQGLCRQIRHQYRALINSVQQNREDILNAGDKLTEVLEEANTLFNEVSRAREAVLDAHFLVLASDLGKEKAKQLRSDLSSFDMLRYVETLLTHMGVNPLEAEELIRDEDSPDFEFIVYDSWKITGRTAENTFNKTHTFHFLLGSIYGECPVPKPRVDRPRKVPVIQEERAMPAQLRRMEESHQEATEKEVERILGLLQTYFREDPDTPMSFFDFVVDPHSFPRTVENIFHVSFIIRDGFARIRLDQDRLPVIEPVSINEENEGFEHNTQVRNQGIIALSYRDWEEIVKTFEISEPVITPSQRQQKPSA
Sequence of UniProt P08651 (P08651 whole entry): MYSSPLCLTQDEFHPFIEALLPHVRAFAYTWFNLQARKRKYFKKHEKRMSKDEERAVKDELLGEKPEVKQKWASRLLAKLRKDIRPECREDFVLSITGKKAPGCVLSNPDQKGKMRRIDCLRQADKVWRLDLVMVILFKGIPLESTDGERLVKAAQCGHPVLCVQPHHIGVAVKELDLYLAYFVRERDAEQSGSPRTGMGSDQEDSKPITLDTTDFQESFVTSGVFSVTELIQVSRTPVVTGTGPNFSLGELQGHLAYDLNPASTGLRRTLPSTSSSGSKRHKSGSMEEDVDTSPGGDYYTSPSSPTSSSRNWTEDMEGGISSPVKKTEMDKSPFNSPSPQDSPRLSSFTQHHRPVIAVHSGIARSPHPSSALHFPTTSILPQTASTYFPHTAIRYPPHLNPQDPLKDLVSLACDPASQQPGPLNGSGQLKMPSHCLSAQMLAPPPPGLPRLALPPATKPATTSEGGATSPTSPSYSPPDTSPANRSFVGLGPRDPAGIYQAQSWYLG
Sequence of UniProt Q96JB2 (Q96JB2 whole entry): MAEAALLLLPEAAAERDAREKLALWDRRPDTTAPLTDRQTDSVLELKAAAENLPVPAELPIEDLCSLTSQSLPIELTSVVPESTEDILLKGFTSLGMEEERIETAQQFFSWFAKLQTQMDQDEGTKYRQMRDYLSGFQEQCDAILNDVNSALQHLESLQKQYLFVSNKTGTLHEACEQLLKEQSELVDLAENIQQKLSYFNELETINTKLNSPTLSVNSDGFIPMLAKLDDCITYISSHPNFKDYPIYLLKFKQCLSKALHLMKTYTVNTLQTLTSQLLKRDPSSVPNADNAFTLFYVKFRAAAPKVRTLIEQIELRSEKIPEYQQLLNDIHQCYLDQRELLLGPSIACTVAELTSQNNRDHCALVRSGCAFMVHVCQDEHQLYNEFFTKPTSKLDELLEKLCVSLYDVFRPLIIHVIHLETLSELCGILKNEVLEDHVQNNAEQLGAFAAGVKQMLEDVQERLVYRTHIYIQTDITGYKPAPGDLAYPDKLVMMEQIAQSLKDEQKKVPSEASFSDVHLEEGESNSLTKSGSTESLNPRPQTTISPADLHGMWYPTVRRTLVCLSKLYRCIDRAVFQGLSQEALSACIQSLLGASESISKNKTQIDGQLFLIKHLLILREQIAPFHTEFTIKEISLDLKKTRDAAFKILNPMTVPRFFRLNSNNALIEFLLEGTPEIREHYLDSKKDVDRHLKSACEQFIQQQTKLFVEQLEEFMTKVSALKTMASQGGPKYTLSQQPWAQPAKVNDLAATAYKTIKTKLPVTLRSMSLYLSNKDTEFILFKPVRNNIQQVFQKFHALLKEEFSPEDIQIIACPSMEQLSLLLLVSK
Sequence of UniProt P49674 (P49674 whole entry, looked up): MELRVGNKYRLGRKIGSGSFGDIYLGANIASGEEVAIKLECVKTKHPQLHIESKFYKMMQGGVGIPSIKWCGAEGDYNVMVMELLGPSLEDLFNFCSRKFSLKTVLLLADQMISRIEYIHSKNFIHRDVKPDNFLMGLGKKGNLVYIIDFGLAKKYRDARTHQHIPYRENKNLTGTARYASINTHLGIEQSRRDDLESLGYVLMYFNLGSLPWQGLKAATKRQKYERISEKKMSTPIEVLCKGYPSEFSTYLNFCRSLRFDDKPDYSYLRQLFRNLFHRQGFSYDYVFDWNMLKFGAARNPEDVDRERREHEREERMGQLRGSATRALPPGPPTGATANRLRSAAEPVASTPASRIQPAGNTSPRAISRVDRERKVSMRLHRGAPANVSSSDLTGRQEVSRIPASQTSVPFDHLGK
Sequence of UniProt Q9BZL1 (Q9BZL1 whole entry): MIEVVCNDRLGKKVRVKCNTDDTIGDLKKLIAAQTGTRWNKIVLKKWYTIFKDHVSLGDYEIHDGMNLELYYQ

Target | thermal stability z-score (lipoamide; [1]) | thermal stability z-score (lipoamide; arsenate co-treatment: none) | thermal stability z-score (potassium arsenate)
TMEM9B (UniProt Q9NQ34) | 0.157 | 0.52 | 0.838
COPS6 (UniProt Q7L5N1) | 0.0852 | -0.522 | -0.236
PNPLA8 (UniProt Q9NP80) | 0.00209 | 0.148 | -0.332
GPAT4 (UniProt Q86UL3) | -0.413 | 0.478 | -0.231
STIM1 (UniProt Q13586) | -1.28 | -1.03 | 0.0811
UBL5 (UniProt Q9BZL1) | -0.115 | -0.0438 | -0.107
G3V3G9 (UniProt P40855) | -0.319 | -0.13 | -0.695
WBSCR16 (UniProt Q96I51) | 1.56 | 0.878 | 0.683
SPCS3 (UniProt P61009) | -1.66 | -1.75 | 0.879
CSRP2 (UniProt Q16527) | 0.688 | 0.0492 | -0.0511
UBE3A (UniProt Q05086) | 0.245 | -0.149 | 0.3
MATR3 (UniProt P43243) | 2.1 | 0.607 | -1.69
DYNLL1 (UniProt P63167) | -0.627 | -0.0429 | 0.163
CARD19 (UniProt Q96LW7) | 0.507 | 1.37 | 0.524
NUS1 (UniProt Q96E22) | 0.421 | 0.252 | 0.015
DNAJC1 (UniProt Q96KC8) | -0.436 | -0.516 | -0.725
TSC2 (UniProt P49815) | 0.021 | -0.0212 | 0.0977
RPA3 (UniProt P35244) | 0.313 | 0.624 | 0.872
CSNK1E (UniProt P49674) | 0.18 | -0.0385 | -0.184
GOLT1B (UniProt Q9Y3E0) | 0.0321 | 0.0691 | -0.117
COL5A1 (UniProt P20908) | -1.41 | -1.55 | 0.375
BCL9 (UniProt O00512) | 0.363 | 1.23 | 0.421
WAPL (UniProt Q7Z5K2) | 0.0171 | 0.484 | -0.434
NUP153 (UniProt P49790) | 0.99 | 0.627 | 3.83

Target | thermal stability z-score (lipoamide; [1]) | thermal stability z-score (lipoamide; arsenate co-treatment: none) | thermal stability z-score (potassium arsenate)
BABAM1 (UniProt Q9NWV8) | 0.196 | 0.129 | -0.323
ARL3 (UniProt P36405) | -0.325 | -0.435 | -0.424
SUPT6H (UniProt Q7KZ85) | 0.225 | 0.758 | -1
UBA3 (UniProt Q8TBC4) | -0.466 | -0.282 | -0.0439
ARHGEF2 (UniProt Q92974) | -0.182 | 0.0779 | 0.444
MAPRE2 (UniProt Q15555) | -0.858 | 0.732 | 1.11
PRPF8 (UniProt Q6P2Q9) | -0.186 | -0.395 | -0.418
PEX13 (UniProt Q92968) | 0.444 | 0.834 | 0.284
OGFOD3 (UniProt Q6PK18) | 0.0324 | -0.274 | -0.0712
LMTK2 (UniProt Q8IWU2) | -0.465 | -0.397 | 1.04
RPUSD3 (UniProt Q6P087) | 0.12 | 0.0857 | 0.085
LRRFIP2 (UniProt Q9Y608) | 1.31 | 1.11 | 1.07
PGD (UniProt P52209) | 0.318 | 0.403 | 0.259
CSRP1 (UniProt P21291) | 0.858 | 0.655 | 0.517
NRBP1 (UniProt Q9UHY1) | -0.349 | -0.151 | 0.23
DIEXF (UniProt Q68CQ4) | 0.1 | 0.0895 | 0.134
NSMCE4A (UniProt Q9NXX6) | -0.245 | -0.35 | -0.055
MORC3 (UniProt Q14149) | -0.165 | -0.119 | -0.054
COG3 (UniProt Q96JB2) | 1.88 | 2.29 | 2.95
RAB4A (UniProt P20338) | 0.387 | 0.311 | 0.408
MVD (UniProt P53602) | 0.0441 | -0.0153 | -0.0067
GOSR1 (UniProt O95249) | 0.726 | 0.473 | -0.0465
MAP4K3 (UniProt Q8IVH8) | 0.23 | -0.0792 | 0.139
TPPP (UniProt O94811) | -0.836 | 0.123 | -0.479

Target | thermal stability z-score (lipoamide; [1]) | thermal stability z-score (lipoamide; arsenate co-treatment: none) | thermal stability z-score (potassium arsenate)
LETM1 (UniProt O95202) | 0.0577 | 0.374 | 0.0137
NFIC (UniProt P08651) | 0.26 | 0.173 | -0.494
PARK7 (UniProt Q99497) | 4.83 | 0.686 | 4.42
NOCT (UniProt Q9UK39) | -0.088 | -0.117 | 0.112
MCL1 (UniProt Q07820) | 0.483 | 0.838 | 1.27
MTR (UniProt Q99707) | -0.354 | -0.00141 | 0.289
RFX1 (UniProt P22670) | 1.04 | 0.453 | 0.128
POLR1A (UniProt O95602) | 0.371 | -0.00373 | -2.59
SCRN2 (UniProt Q96FV2) | 0.553 | -0.0583 | -0.185
RPS2 (UniProt P15880) | 0.307 | 0.259 | -0.532
TPM4 (UniProt P67936) | 0.31 | 0.407 | -0.0802
ALG3 (UniProt Q92685) | -0.0793 | -0.236 | 0.141
MRPL1 (UniProt Q9BYD6) | -0.253 | -0.245 | 0.374
MAX (UniProt P61244) | 2.75 | 2.05 | 2.9
NADK (UniProt O95544) | 0.88 | 0.314 | -0.183
LSR (UniProt Q86X29) | 0.221 | -0.243 | -0.177
ECH1 (UniProt Q13011) | -0.108 | 0.163 | -0.0954
PLAUR (UniProt Q03405) | -1.4 | -2.11 | -0.768
PPIA (UniProt P62937) | 0.27 | 0.693 | -0.295
MRPL17 (UniProt Q9NRX2) | 0.0551 | 0.00699 | -0.206
DYNC2LI1 (UniProt Q8TCX1) | 0.0696 | -0.0585 | 0.202
ANXA7 (UniProt P20073) | 1.98 | 1.08 | 0.966
ATP7A (UniProt Q04656) | -0.29 | -0.175 | -0.674
